# Source: PMC8635029 (Frontiers in Pharmacology, 2021)
# How the values were obtained:
# Experiment in all cases: In vitro SafetyScreen panel
# Monoamine Oxidase MAO-B = target: T1, Monoamine Oxidase MAO-B (Homo sapiens, UniProt P27338); assay type: biochemical
# T1 construct: Eurofins Discovery (outsourced panel) PP223
# Method: (§1) In vitro off-target pharmacological activities of HSK21542 were evaluated on 86 targets using a SafetyScreen panel (Item PP223, target selectivity panel) and the corresponding methods could be found at https://www.eurofinsdiscoveryservices.com/.
# [1] = target: T2, Protein Tyrosine Kinase, LCK (Homo sapiens, UniProt P06239); assay type: biochemical
# T2 construct: Eurofins Discovery (outsourced panel) PP223
# Method: as §1
# Monoamine Oxidase MAO-A = target: T3, Monoamine Oxidase MAO-A (Homo sapiens, UniProt P21397); assay type: biochemical
# T3 construct: Eurofins Discovery (contract panel) Item PP223
# Method: as §1
# [2] = target: T4, Cholinesterase, Acetyl, ACES (Homo sapiens, UniProt P22303); assay type: biochemical
# T4 construct: Eurofins Discovery (contract panel) PP223
# Method: as §1
# Cyclooxygenase COX-2 = target: T5, Cyclooxygenase COX-2 (Homo sapiens, UniProt P35354); assay type: biochemical
# T5 construct: Eurofins Discovery (contract panel) Item PP223
# Method: as §1
# Cyclooxygenase COX-1 = target: T6, Cyclooxygenase COX-1 (Homo sapiens, UniProt P23219); assay type: biochemical
# T6 construct: Eurofins Discovery (contract panel) PP223
# Method: as §1
# [3] = target: T7, Protein Tyrosine Kinase, Insulin Receptor (Homo sapiens, UniProt P06213); assay type: biochemical
# T7 construct: Eurofins Discovery (outsourced panel) PP223
# Method: as §1
# [4] = target: T8, Peptidase, CTSG (Cathepsin G) (Homo sapiens, UniProt P08311); assay type: biochemical
# T8 construct: Eurofins Discovery (outsourced panel) PP223
# Method: as §1
# Adrenergic α2A = target: T9, Adrenergic α2A (Homo sapiens, UniProt P08913); assay type: binding
# T9 construct: Eurofins Discovery (contract panel) PP223
# Method: as §1
# [5] = target: T10, Transporter, Norepinephrine (NET) (Homo sapiens, UniProt P23975); assay type: binding
# T10 construct: Eurofins Discovery (contract panel) PP223
# Method: as §1
# Dopamine D2S = target: T11, Dopamine D2S (Homo sapiens, UniProt P14416); assay type: binding
# T11 construct: Eurofins Discovery (contract panel) Item PP223
# Method: as §1
# Progesterone PR-B = target: T12, Progesterone PR-B (Homo sapiens, UniProt P06401); assay type: binding
# T12 construct: Eurofins Discovery (outsourced panel) PP223
# Method: as §1
# [6] = target: T13, Glutamate, Metabotropic, mGlu5 (Homo sapiens, UniProt P41594); assay type: binding
# T13 construct: Eurofins Discovery (contract panel) Item PP223
# Method: as §1
# Adrenergic α2B = target: T14, Adrenergic α2B (Homo sapiens, UniProt P18089); assay type: binding
# T14 construct: Eurofins Discovery (contract panel) PP223
# Method: as §1
# Neuropeptide YY1 = target: T15, Neuropeptide YY1 (Homo sapiens, UniProt P25929); assay type: binding
# T15 construct: Eurofins Discovery (outsourced panel) PP223
# Method: as §1
# T14 sequence (P18089 whole entry): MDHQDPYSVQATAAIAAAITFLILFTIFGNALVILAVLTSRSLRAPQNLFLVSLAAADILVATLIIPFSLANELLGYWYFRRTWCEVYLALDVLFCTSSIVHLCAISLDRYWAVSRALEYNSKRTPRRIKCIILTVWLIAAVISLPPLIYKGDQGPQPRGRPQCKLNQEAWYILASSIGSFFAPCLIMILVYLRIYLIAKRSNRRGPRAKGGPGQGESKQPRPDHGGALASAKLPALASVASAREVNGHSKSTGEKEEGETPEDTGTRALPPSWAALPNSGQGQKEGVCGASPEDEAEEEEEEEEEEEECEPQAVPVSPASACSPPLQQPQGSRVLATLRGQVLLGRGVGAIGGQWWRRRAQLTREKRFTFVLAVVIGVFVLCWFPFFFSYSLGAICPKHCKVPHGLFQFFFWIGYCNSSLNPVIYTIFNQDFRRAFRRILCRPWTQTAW
# T11 sequence (P14416 1-414 isoform P14416-2): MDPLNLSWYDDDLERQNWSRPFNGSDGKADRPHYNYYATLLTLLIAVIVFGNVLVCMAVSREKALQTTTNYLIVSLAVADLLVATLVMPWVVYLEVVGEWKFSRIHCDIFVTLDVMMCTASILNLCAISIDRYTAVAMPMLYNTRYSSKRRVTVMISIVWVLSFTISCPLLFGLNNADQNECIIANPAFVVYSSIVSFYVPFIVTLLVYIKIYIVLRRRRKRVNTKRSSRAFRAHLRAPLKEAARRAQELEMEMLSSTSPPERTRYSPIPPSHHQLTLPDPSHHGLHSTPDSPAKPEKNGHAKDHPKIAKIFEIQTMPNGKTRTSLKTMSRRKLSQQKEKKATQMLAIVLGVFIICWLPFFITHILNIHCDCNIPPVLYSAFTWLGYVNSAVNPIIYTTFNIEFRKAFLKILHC
# T6 sequence (P23219 24-599): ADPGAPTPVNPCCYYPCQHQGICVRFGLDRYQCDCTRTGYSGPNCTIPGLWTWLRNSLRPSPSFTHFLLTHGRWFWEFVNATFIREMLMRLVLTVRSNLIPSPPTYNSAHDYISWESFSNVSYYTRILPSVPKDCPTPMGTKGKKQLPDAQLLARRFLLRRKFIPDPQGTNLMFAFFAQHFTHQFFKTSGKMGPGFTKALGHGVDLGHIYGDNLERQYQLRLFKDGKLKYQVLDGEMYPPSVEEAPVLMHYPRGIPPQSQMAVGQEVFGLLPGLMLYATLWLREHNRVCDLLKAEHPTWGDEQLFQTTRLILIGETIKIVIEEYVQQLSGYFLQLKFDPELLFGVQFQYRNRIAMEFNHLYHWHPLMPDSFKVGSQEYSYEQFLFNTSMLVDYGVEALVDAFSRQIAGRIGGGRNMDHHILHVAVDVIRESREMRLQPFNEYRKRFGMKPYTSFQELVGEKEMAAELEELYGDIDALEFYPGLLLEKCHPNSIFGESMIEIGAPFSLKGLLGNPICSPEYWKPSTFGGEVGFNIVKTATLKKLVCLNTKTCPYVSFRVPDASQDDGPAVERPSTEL
# T8 sequence (P08311 21-255): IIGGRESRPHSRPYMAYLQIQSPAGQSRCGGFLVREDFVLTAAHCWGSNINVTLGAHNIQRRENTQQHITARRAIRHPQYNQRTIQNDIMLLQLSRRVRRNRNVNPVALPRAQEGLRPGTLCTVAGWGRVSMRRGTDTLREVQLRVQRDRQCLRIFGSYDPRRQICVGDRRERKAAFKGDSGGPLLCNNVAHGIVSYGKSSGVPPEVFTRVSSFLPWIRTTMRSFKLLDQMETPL
# T7 sequence (P06213 28-1382): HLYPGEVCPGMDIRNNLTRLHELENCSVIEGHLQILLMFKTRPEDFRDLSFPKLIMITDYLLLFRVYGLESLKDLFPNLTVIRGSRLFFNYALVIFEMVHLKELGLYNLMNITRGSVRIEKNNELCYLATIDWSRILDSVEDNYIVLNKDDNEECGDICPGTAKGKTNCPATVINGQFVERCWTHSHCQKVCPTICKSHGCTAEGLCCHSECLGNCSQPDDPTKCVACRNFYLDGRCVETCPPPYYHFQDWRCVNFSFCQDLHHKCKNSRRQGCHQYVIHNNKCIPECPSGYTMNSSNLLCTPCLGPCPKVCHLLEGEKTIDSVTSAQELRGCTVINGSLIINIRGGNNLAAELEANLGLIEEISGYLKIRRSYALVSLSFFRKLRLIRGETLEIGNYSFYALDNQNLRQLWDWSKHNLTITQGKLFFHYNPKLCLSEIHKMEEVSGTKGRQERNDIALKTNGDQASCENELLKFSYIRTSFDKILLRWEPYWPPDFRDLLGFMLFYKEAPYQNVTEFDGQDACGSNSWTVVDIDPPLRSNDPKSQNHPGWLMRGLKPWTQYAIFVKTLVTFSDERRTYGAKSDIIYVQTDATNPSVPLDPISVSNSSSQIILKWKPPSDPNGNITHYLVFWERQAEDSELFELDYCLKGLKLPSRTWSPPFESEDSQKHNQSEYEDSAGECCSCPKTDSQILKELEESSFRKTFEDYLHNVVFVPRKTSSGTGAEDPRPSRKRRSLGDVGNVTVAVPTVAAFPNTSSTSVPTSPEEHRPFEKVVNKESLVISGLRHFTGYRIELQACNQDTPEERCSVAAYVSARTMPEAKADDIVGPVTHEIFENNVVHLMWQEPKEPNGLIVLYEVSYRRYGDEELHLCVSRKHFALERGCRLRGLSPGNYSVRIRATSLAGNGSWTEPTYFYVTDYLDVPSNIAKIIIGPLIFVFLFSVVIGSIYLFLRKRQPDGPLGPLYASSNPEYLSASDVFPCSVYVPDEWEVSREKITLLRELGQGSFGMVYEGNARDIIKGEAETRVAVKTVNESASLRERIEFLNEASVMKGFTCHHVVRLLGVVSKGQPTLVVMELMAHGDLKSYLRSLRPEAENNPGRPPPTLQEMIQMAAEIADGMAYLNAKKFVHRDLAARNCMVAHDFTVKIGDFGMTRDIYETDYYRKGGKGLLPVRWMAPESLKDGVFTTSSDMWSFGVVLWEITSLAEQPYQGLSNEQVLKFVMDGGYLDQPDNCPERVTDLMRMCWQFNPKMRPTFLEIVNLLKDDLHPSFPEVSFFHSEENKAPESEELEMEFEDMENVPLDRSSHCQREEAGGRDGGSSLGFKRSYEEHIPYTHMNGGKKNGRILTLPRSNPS
# T13 sequence (P41594 21-1212): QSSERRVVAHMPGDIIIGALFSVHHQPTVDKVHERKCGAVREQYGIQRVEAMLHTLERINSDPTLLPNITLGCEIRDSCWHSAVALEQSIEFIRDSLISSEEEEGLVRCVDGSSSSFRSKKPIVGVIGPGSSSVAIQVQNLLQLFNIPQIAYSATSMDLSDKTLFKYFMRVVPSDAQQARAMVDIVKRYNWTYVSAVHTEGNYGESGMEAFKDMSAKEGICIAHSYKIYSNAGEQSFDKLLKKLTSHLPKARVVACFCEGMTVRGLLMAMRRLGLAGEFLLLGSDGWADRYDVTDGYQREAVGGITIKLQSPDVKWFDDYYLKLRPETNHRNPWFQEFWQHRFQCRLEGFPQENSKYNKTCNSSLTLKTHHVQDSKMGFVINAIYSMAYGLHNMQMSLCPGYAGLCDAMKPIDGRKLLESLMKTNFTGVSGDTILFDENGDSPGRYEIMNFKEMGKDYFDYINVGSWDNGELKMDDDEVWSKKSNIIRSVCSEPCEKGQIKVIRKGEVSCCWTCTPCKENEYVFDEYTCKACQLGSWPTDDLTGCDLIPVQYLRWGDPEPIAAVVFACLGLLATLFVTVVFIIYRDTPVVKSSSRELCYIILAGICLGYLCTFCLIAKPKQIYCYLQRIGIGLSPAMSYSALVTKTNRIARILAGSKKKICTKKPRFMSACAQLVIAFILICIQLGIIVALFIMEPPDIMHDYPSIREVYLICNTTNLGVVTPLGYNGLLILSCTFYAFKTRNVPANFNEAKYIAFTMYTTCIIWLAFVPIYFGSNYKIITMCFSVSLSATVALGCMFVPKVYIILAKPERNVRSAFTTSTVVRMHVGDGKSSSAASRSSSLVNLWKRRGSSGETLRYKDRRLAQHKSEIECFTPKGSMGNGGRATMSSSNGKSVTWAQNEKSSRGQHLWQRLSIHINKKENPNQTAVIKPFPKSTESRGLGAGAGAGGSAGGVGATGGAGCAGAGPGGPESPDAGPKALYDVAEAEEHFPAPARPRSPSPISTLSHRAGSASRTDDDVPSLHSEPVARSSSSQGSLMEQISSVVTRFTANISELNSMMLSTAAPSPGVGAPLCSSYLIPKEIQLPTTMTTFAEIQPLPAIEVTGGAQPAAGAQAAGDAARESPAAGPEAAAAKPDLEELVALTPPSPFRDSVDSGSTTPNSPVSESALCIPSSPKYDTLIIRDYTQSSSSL
# T1 sequence (P27338 whole entry): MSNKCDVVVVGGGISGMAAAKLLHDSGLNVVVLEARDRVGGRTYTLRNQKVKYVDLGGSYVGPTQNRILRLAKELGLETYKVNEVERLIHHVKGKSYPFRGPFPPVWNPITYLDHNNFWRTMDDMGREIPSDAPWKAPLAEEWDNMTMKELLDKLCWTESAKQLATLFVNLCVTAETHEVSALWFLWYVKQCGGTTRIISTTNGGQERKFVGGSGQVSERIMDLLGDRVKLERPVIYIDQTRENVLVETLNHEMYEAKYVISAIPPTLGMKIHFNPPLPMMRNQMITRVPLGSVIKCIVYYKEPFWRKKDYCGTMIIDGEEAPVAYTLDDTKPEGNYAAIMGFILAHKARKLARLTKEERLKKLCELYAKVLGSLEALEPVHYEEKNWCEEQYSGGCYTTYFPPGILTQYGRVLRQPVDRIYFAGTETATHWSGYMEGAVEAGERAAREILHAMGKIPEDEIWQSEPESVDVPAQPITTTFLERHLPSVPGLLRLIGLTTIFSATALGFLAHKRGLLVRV
smiles,measurement,setting,value
"CC(=O)N1CC2(CCN(C(=O)[C@@H](CCCCN)NC(=O)[C@@H](CC(C)C)NC(=O)[C@@H](Cc3ccccc3)NC(=O)[C@H](N)Cc3ccccc3)CC2)C1 [HSK21542, 7-(D-phenylalanyl-D-phenylalanyl-D-leucyl-D-lysyl)-2-acetyl-2,7-diazaspiro (3.5)nonane]",inhibition at 10 µM,Monoamine Oxidase MAO-B,11%
same,inhibition at 10 µM,[1],-8%
same,inhibition at 10 µM,Monoamine Oxidase MAO-A,0%
same,inhibition at 10 µM,[2],6%
same,inhibition at 10 µM,Cyclooxygenase COX-2,12%
same,inhibition at 10 µM,Cyclooxygenase COX-1,9%
same,inhibition at 10 µM,[3],17%
same,inhibition at 10 µM,[4],-1%
same,inhibition at 10 µM,Adrenergic α2A,7%
same,inhibition at 10 µM,[5],19%
same,inhibition at 10 µM,Dopamine D2S,-15%
same,inhibition at 10 µM,Progesterone PR-B,-1%
same,inhibition at 10 µM,[6],19%
same,inhibition at 10 µM,Adrenergic α2B,-6%
same,inhibition at 10 µM,Neuropeptide YY1,-8%
